Assay results reported in article PMC8584229, “Comparative Antiseizure Analysis of Diverse Natural Coumarin Derivatives in Zebrafish” (International Journal of Molecular Sciences, 2021).
Where two headings read alike, the source gives them in different places.

Experiments:
[1] = system: maximal electroshock-induced seizures; settings: cited from earlier work; for ED50 of classic anticonvulsant alone: without umbelliferone
[2] = system: PTZ-induced seizure-like behavior (locomotor activity) of zebrafish larvae; test: Larval zebrafish PTZ seizure model, locomotor analysis (behavioral antiseizure activity); format: in vivo, zebrafish (Danio rerio); settings: for antiseizure activity in the locomotor assay (in words) / lowered seizure-like behavior / decrease of PTZ-induced locomotor activity / lowered PTZ-induced locomotion / decrease of seizure-like behavior: 20 mM PTZ; for antiseizure activity in the locomotor assay (in words): up to MTC; for lowered seizure-like behavior: abstract summary, highest effect, 18 h pre-incubation; for decrease of PTZ-induced locomotor activity: range over all test concentrations (MTC and 2-, 4-, 8-fold dilutions)
Description: The effect of different concentrations of test compounds was explored on the locomotor behavior of larvae exposed to the GABA-antagonist PTZ. All compounds were tested at four concentrations—the maximum tolerated concentration (MTC) and two-fold, four-fold, and eight-fold dilutions of the MTC. […] In all experiments, as expected, the positive control VPA (1 mM) decreased seizure-like behavior (i.e., PTZ-induced elevated locomotor activity) with an average (±SD) of 44 ± 34%. […] The antiseizure effect depended on either the type of coumarin or the concentration.
Adult zebrafish (Danio rerio) stocks of the AB strain were maintained at 28.5 °C, on a 14/10 h light/dark cycle under standard aquaculture conditions, and fertilized eggs were collected via natural spawning. Embryos were reared under standard light/dark conditions in embryo medium (1.5 mM HEPES, pH 7.1–7.3, 17.4 mM NaCl, 0.21 mM KCl, 0.12 mM MgSO4, 0.18 mM Ca(NO3)2, and 0.6 μM methylene blue) in an incubator at 28.5 °C. For all measurements, 7-days post-fertilization (dpf) larvae were used, which were treated at 6 dpf. The zebrafish experiments described here were approved by the Local Ethics Committee in Lublin (license no: 109/2018), the Ethics Committee of the University of Leuven (approval number 023/2017), and the Belgian Federal Department of Public Health, Food Safety & Environment (approval number LA1210199). All experiments complied with the EU Directive 2010/63/EU for animal experiments.
All compounds were dissolved in dimethyl sulfoxide (DMSO) and diluted in embryo medium to achieve a final DMSO concentration of 1% v/v. Embryo medium prepared with DMSO to a final concentration of 1% v/v served as a vehicle (VHC) control. PTZ (40 mM) was dissolved in embryo medium. The control anticonvulsant used in this study was VPA.
Six-dpf larvae were treated with VHC (embryo medium (1% DMSO)), VPA (1 mM), or tested compound, in 100 µL volume for 18 h, in individual wells of a 96-well plate at 28.5 °C in the dark. Larvae were allowed to habituate for 5 min in a dark chamber of an automated tracking device (ZebraBox system, Viewpoint, Lyon, France). Then, 100 µL of embryo medium or 100 µL of a 40 mM PTZ solution was added to obtain a final concentration of 20 mM [33] and the locomotor activity was measured to evaluate seizure intensity. The total locomotor activity was quantified using ZebraLab software (Viewpoint, Lyon, France). Total locomotor activity was expressed as total distance moved. All tracking experiments were performed at least in triplicate.
(§1) All statistical analyses were performed using GraphPad Prism 5 or 7 software (GraphPad Software, Inc., San Diego, CA, USA). The locomotor activity of zebrafish larvae and electrophysiological antiseizure analysis was evaluated using one-way ANOVA followed by Dunnett’s multiple comparisons test. Values were presented as lardist sum ± standard error of the mean (SEM) or normalized PSD (%) ± standard error of the mean (SEM). Lardist is large movement distance (>6 mm/s), measured in millimeters. Significance levels: * p ≤ 0.05, ** p ≤ 0.01, and *** p ≤ 0.001.

GABAA receptor = system: GABAA receptor; set-up: method as in PMID 21749864; settings: cited from earlier work; for EC50: read-out: EC50 (potentiation of IGABA)
[3] = system: seizure-related locomotor activity of zebrafish; set-up: method as in PMID 30668376; settings: cited from earlier work
[4] = system: PTZ-induced epileptiform activity in the zebrafish larval optic tectum; test: Local field potential recordings from the optic tectum, power spectral density analysis; format: in vivo, zebrafish (Danio rerio); settings: MTC, 18 h incubation; 20 mM PTZ; 20–90 Hz band
Description: To further investigate the results of the behavioral study for all eight selected compounds, local field potential (LFP) measurements were employed. Zebrafish larvae were incubated with the compounds at their MTC for 18 h in darkness and the epileptiform activity was measured in the zebrafish larval optic tectum. A significant reduction in larvae with PTZ-induced epileptiform activity was observed, in comparison to PTZ-treated controls, for all compounds except nodakenetin (Figure 3).
For the rapid, objective, and automated analysis of the LFP recordings, power spectral density (PSD) analysis was performed. This methodology was previously developed and used for zebrafish electrophysiology. It relies on the Welch’s method of averaging the modified periodograms with a 512-point fast Fourier transformation with 80% overlapping 100 sample (100 ms) long segments and a Hamming window. PSDs were estimated for each LFP recording over each 10 Hz frequency band, ranging from 0 to 160 Hz. All examined furanocoumarins at the MTC concentration ameliorated the excitatory effect of preincubation with PTZ. Oxypeucedanin (1), oxypeucedanin hydrate (2), and notopterol (3) decreased normalized PSD per larva to a similar level with 83–89%. […] Pimpinellin (14, an angular furanocoumarin), daphnoretin (17, a simple coumarin derivative), and hyuganin C (18, a dihydropyranocoumarin) decreased normalized PSD by 81, 88, and 65%, respectively.
Non-invasive local field potential recordings were performed from the optic tectum of 7-dpf zebrafish larvae. Larvae were treated with VHC (embryo medium (1% DMSO)) or compound (MTC) in 100 µL volume (in individual wells of a 96-well plate) in darkness (28 °C) for 18 h before measurement. Prior to the recording, 100 µL of VHC (embryo medium) or 40 mM PTZ (to obtain a final concentration of 20 mM) was added to the well for 15 min. After incubation, the larva was immobilized in 2% low-melting-point agarose (Invitrogen, Carlsbad, CA, USA) and the signal electrode, an electrode inside a blunt soda-glass pipet (1412227, Hilgenberg, Germany), was positioned on the skin covering the optic tectum. Electrophysiological recordings where performed as described before. Automated power spectral density analysis was performed using MATLABR2018b (The MathWorks, Inc., Natick, MA, USA), as described before.
as §1

Compound: COc1c2occc2cc2ccc(=O)oc12 [xanthotoxin, reference compound]
- ED50 (anticonvulsant activity) ([1]; administered 60 min before electroconvulsion, mice): 219.1 ± 4.7 mg/kg

Compound: COc1ccc2ccc(=O)oc2c1CC=C(C)C [osthole]
- antiseizure activity in the locomotor assay (in words) [2]: not active
- protection of the animals against MES ([1]; 266 and 259 mg/kg i.p., between 15 and 30 min before the test): ~90%
- effect on the anticonvulsant activity of CBZ, PB, PHT and VPA on co-administration (in words) ([1]; mice): did not have a significant effect
- current in the absence of GABA (in words) (GABAA receptor): neither of them induced a current in the absence of GABA
- enhancement of IGABA (GABAA receptor): greater than 20%
- EC50 (GABAA receptor): 14 ± 1 µM

Compound: lucidafuranocoumarin A
- inhibition (antiseizure, locomotor activity) ([3]; 16 µM): 69%

Compound: CC1(C)O[C@@H]1COc1c2occc2cc2ccc(=O)oc12 [heraclenin, reference compound]
- enhancement of IGABA (GABAA receptor): greater than 20%

Compound: COc1c2ccoc2c(OC[C@@H](O)C(C)(C)O)c2oc(=O)ccc12 [byakangelicin]
- antiseizure activity in the locomotor assay (in words) [2]: lack of antiseizure activity

Compound: COc1c2ccoc2cc2oc(=O)ccc12 [bergapten]
- protective properties in MES test (in words) ([1]; mice): did not show protective properties

Compound: CC(C)=CCC/C(C)=C/COc1c2ccoc2cc2oc(=O)ccc12 [bergamottin]
- inhibition (antiseizure, locomotor activity) ([3]; most active concentration, 2 µM): 26%

Compound: COc1cc2cc(Oc3ccc4ccc(=O)oc4c3)c(=O)oc2cc1O [daphnoretin]
- lowered seizure-like behavior [2]: 65%
- decrease of PTZ-induced locomotor activity [2]: 42–65%
- decrease of normalized PSD (PTZ-induced elevation in power spectral density) [4]: 88%

Compound: CC(C)=CC(O)C/C(C)=C/COc1c2ccoc2cc2oc(=O)ccc12 (stereo not shown) [notopterol]
- lowered PTZ-induced locomotion ([2]; 2 µM): 54%
- lowered PTZ-induced locomotion ([2]; 0.25–1 µM): 35–39%
- lowered seizure-like behavior [2]: 54%
- decrease of normalized PSD (PTZ-induced elevation in power spectral density) [4]: 83–89%

Compound: CC(C)=CCOc1c2occc2cc2ccc(=O)oc12 [imperatorin]
- antiseizure activity in the locomotor assay (in words) [2]: lack of antiseizure activity
- raised threshold for electroconvulsions ([1]; 50 mg/kg i.p., mice): 38%
- raised threshold for electroconvulsions ([1]; 100 mg/kg i.p., mice): 68%
- enhancement of IGABA (GABAA receptor): greater than 20%

Compound: CCCC(CCC)C(=O)O [VPA, valproic acid, reference compound]
- decrease of seizure-like behavior (PTZ-induced elevated locomotor activity), average ± SD ([2]; positive control, 1 mM, all experiments): 44 ± 34%
- ED50 of classic anticonvulsant alone ([1]; mice): 281.4 mg/kg

Compound: O=c1ccc2ccc(O)cc2o1 [umbelliferone, 7-hydroxycoumarin]
- antiseizure activity in the locomotor assay (in words) [2]: not active
- increase of the electroshock threshold ([1]; 150 mg/kg i.p., 30 min before electroshock): around 37%

Compound: COc1c(OC)c2occc2c2oc(=O)ccc12 [pimpinellin]
- lowered seizure-like behavior [2]: 60%
- decrease of normalized PSD (PTZ-induced elevation in power spectral density) [4]: 81%
- enhancement of IGABA (GABAA receptor): greater than 20%

Compound: COc1c2ccoc2c(OCC=C(C)C)c2oc(=O)ccc12 [phellopterin]
- antiseizure activity in the locomotor assay (in words) [2]: lack of antiseizure activity
- enhancement of IGABA (GABAA receptor): greater than 20%

Compound: CC1(C)O[C@H]1COc1c2ccoc2cc2oc(=O)ccc12 [oxypeucedanin]
- lowered seizure-like behavior [2]: 38%
- decrease of PTZ-induced locomotor activity [2]: 23–38%
- decrease of normalized PSD (PTZ-induced elevation in power spectral density) [4]: 83–89%
- protective properties in MES test (in words) ([1]; mice): did not show protective properties
- current in the absence of GABA (in words) (GABAA receptor): neither of them induced a current in the absence of GABA
- enhancement of IGABA (GABAA receptor): greater than 20%
- EC50 (GABAA receptor): 25 ± 8 µM

Compound: CC(C)=CCCC(C)=CCOc1c2occc2cc2ccc(=O)oc12 [8-geranyloxypsoralen]
- antiseizure activity in the locomotor assay (in words) [2]: lack of antiseizure activity

Compound: COc1c2ccoc2c(OC[C@H]2OC2(C)C)c2oc(=O)ccc12 [byakangelicol]
- antiseizure activity in the locomotor assay (in words) [2]: lack of antiseizure activity

Compound: CCC1(c2ccccc2)C(=O)NC(=O)NC1=O [PB, phenobarbital, reference compound]
- ED50 of classic anticonvulsant alone ([1]; mice): 35.39 mg/kg

Compound: CC(C)(O)[C@H](O)COc1c2ccoc2cc2oc(=O)ccc12 [oxypeucedanin hydrate]
- lowered seizure-like behavior [2]: 74%
- decrease of PTZ-induced locomotor activity [2]: 43–74%
- decrease of normalized PSD (PTZ-induced elevation in power spectral density) [4]: 83–89%

Compound: C1CCc2nnnn2CC1 [PTZ, pentylenetetrazole, reference compound]
- increase in seizure-like behavior and locomotor activity (lardist sum), average ± SD ([2]; proconvulsant, 20 mM, all experiments): 59 ± 35%

Compound: CC(C)(O)[C@H]1Cc2cc3ccc(=O)oc3cc2O1 [nodakenetin]
- lowered seizure-like behavior [2]: 29%
- decrease of normalized PSD (PTZ-induced elevation in power spectral density) [4]: 26%

Compound: CC[C@H](C)C(=O)OC1c2c(ccc3ccc(=O)oc23)OC(C)(C)C1OC(C)=O (stereo partly shown) [hyuganin C]
- decrease of seizure-like behavior ([2]; 10 µM): 27%
- decrease of seizure-like behavior ([2]; 20 µM): 35%
- lowered seizure-like behavior [2]: 35%
- decrease of normalized PSD (PTZ-induced elevation in power spectral density) [4]: 65%

Compound: CC(C)=CCOc1c2ccoc2cc2oc(=O)ccc12 [isoimperatorin]
- enhancement of IGABA (GABAA receptor): greater than 20%

Compound: CC(C)(O[C@@H]1O[C@H](CO)[C@@H](O)[C@H](O)[C@H]1O)[C@H]1Cc2cc3ccc(=O)oc3cc2O1 [nodakenin]
- antiseizure activity in the locomotor assay (in words) [2]: inactive
- decrease of normalized PSD (PTZ-induced elevation in power spectral density) [4]: 77%
